Data from patent US8299267B2, “(3-hydroxy-4-amino-butan-2-yl) -3- (2-thiazol-2-yl-pyrrolidine-1-carbonyl) benzamide derivatives and related compounds as beta-secretase inhibitors for treating” (CoMentis, Inc., priority 2007, dated 2012).

Columns and labels:
memapsin 2 = memapsin 2 (Homo sapiens, UniProt P56817); experiment: Inhibition of memapsin 2 beta-secretase activity toward fluorogenic substrate FS-2; assay type: biochemical; settings: memapsin 2, pH 4, 37° C., 20 minutes pre-incubation, substrate FS-2; read-out: M2Ki
Sequence of memapsin 2 (P56817 46-501): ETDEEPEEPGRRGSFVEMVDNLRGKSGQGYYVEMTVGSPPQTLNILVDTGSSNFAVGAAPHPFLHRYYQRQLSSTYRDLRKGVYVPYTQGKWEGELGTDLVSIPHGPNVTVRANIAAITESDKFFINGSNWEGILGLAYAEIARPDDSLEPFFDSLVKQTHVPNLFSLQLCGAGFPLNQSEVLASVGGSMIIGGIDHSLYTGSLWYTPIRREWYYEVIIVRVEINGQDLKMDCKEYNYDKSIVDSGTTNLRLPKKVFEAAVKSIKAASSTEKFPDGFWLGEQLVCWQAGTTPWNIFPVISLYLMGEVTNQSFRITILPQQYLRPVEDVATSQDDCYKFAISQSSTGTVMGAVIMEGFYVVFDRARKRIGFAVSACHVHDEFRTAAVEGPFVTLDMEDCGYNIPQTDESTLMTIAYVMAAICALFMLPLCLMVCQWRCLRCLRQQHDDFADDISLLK
Summary of the method: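 Memapsin 2 was preincubated with compound 20 min at pH 4, 37 °C, then reacted with fluorogenic substrate FS-2 (MCA-SEVNLDAEFK-DNP), an APP-derived Swedish-variant peptide. Inhibition was followed kinetically by fluorescence.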

[1] = tested on: Aβ production in Chinese hamster ovary cells that over-express human APP695 with the London and Swedish mutations; experiment: Cellular Aβ IC50 determination (Aβ40 sandwich ELISA); assay type: cell-based; settings: Cricetulus griseus; Aβ40 in CHO cells over-expressing human APP695, 24 h incubation
Method: The potency of compounds against memapsin 2 activity was determined in a cellular assay of Aβ production. […] Chinese hamster ovary cells that over-express human APP695 with the London and Swedish mutations were seeded in multi-well plates at 10% confluency. Compounds are dissolved in DMSO to concentrations near 1 mM, and diluted into culture media to a final concentration near 4 μM (final 0.4% DMSO). Compounds were diluted serially and applied to cells in multi-well plates 48 h after seeding. Incubation was continued in 5% CO2 at 37° C. for 24 h. Aliquots were removed and assayed for Aβ40 content using a sandwich ELISA (BioSource International). Amount of Aβ40 over the range of concentration of compounds, relative to control incubations, were fit to a 4-parameter IC50 model.

SMILES	Ki (memapsin 2) [nM]	IC50 [1] [nM]
Cc1csc([C@H]2CCCN2C(=O)c2cc(C(=O)N[C@@H](Cc3ccccc3)[C@H](O)CNCc3cncc(C(C)C)c3)cc(N(C)C)c2)n1 [Compound 29, 3-(dimethylamino)-N-((2S,3R)-3-hydroxy-4-((5-isopropylpyridin-3-yl)methylamino)-1-phenylbutan-2-yl)-5-((R)-2-(4-methylthiazol-2-yl)pyrrolidine-1-carbonyl)benzamide]	< 100	< 300
Cc1csc([C@H]2CCCN2C(=O)c2cc(C(=O)N[C@@H](Cc3ccccc3)[C@H](O)CNCc3cccc(C(F)(F)F)c3)cc(N(C)C)c2)n1 [Compound 30, 3-(dimethylamino)-N-((2S,3R)-3-hydroxy-1-phenyl-4-(3-(trifluoromethyl)benzylamino)butan-2-yl)-5-((R)-2-(4-methylthiazol-2-yl)pyrrolidine-1-carbonyl)benzamide]	< 100	< 300
Cc1csc([C@H]2CCCN2C(=O)c2cncc(C(=O)N[C@@H](Cc3ccccc3)[C@H](O)CNCc3cccc(C(F)(F)F)c3)c2)n1 [Compound 31, N-((2S,3R)-3-hydroxy-1-phenyl-4-(3-(trifluoromethyl)benzylamino)butan-2-yl)-5-((R)-2-(4-methylthiazol-2-yl)pyrrolidine-1-carbonyl)nicotinamide]	< 100	< 300
Cc1csc([C@H]2CCCN2C(=O)c2cncc(C(=O)N[C@@H](Cc3ccccc3)[C@H](O)CNCc3cccc(C(C)(C)C)c3)c2)n1 [Compound 32, N-((2S,3R)-4-(3-tert-butylbenzylamino)-3-hydroxy-1-phenylbutan-2-yl)-5-((R)-2-(4-methylthiazol-2-yl)pyrrolidine-1-carbonyl)nicotinamide]	101 to 200	< 300
Cc1csc([C@H]2CCCN2C(=O)c2cc(C(=O)N[C@@H](Cc3ccccc3)[C@H](O)CNCc3cncc(C(C)C)c3)cc(-c3cnco3)c2)n1 [Compound 33, N-((2S,3R)-3-hydroxy-4-((5-isopropylpyridin-3-yl)methylamino)-1-phenylbutan-2-yl)-3-((R)-2-(4-methylthiazol-2-yl)pyrrolidine-1-carbonyl)-5-(oxazol-5-yl)benzamide]	< 100	< 300
Cc1coc([C@H]2CCCN2C(=O)c2cccc(C(=O)N[C@@H](Cc3ccccc3)[C@H](O)CNCc3cncc(C(C)C)c3)c2)n1 [Compound 34, N-((2S,3R)-3-hydroxy-4-((5-isopropylpyridin-3-yl)methylamino)-1-phenylbutan-2-yl)-3-((R)-2-(4-methyloxazol-2-yl)pyrrolidine-1-carbonyl)benzamide]	< 100	< 300
Cc1coc([C@H]2CCCN2C(=O)c2cccc(C(=O)N[C@@H](Cc3ccccc3)[C@H](O)CNCc3cccc(C(F)(F)F)c3)c2)n1 [Compound 35, N-((2S,3R)-3-hydroxy-1-phenyl-4-(3-(trifluoromethyl)benzylamino)butan-2-yl)-3-((R)-2-(4-methyloxazol-2-yl)pyrrolidine-1-carbonyl)benzamide]	< 100	< 300
Cc1csc([C@H]2CCCN2C(=O)c2cc(C(=O)N[C@@H](Cc3ccccc3)[C@H](O)CNCc3cncc(C(C)(C)F)c3)cc(-c3ncco3)c2)n1 [Compound 38, N-((2S,3R)-4-((5-(2-fluoropropan-2-yl)pyridin-3-yl)methylamino)-3-hydroxy-1-phenylbutan-2-yl)-3-((R)-2-(4-methylthiazol-2-yl)pyrrolidine-1-carbonyl)-5-(oxazol-2-yl)benzamide]	< 100	< 300
Cc1coc([C@H]2CCCN2C(=O)c2cccc(C(=O)N[C@@H](Cc3ccccc3)[C@H](O)CNCc3cncc(C(C)(C)F)c3)c2)n1 [Compound 39, N-((2S,3R)-4-((5-(2-fluoropropan-2-yl)pyridin-3-yl)methylamino)-3-hydroxy-1-phenylbutan-2-yl)-3-((R)-2-(4-methyloxazol-2-yl)pyrrolidine-1-carbonyl)benzamide]	< 100	< 300
Cc1csc([C@H]2CCCN2C(=O)c2cc(C(=O)N[C@@H](Cc3ccccc3)[C@H](O)CNCc3cncc(C(C)(F)F)c3)cc(N(C)C)c2)n1 [Compound 40, N-((2S,3R)-4-((5-(1,1-difluoroethyl)pyridin-3-yl)methylamino)-3-hydroxy-1-phenylbutan-2-yl)-3-(dimethylamino)-5-((R)-2-(4-methylthiazol-2-yl)pyrrolidine-1-carbonyl)benzamide]	< 100	< 300
Cc1csc([C@H]2CCCN2C(=O)c2cc(C(=O)N[C@@H](Cc3ccccc3)[C@H](O)CNCc3cccc(C(C)(C)C)c3)cc(N(C)C)c2)n1 [Compound 41, N-((2S,3R)-4-(3-tert-butylbenzylamino)-3-hydroxy-1-phenylbutan-2-yl)-3-(dimethylamino)-5-((R)-2-(4-methylthiazol-2-yl)pyrrolidine-1-carbonyl)benzamide]	< 100	< 300
Cc1cc(C(=O)N[C@@H](Cc2ccccc2)[C@H](O)CNCc2cncc(C(C)(C)F)c2)cc(C(=O)N2CCC[C@@H]2c2nc(C)cs2)c1 [Compound 42, N-((2S,3R)-4-((5-(2-fluoropropan-2-yl)pyridin-3-yl)methylamino)-3-hydroxy-1-phenylbutan-2-yl)-3-methyl-5-((R)-2-(4-methylthiazol-2-yl)pyrrolidine-1-carbonyl)benzamide]	< 100	< 300
Cc1csc([C@H]2CCCN2C(=O)c2cc(C(=O)N[C@@H](Cc3ccccc3)[C@H](O)CNCc3cncc(C(C)C)c3)cc(-c3cnccn3)c2)n1 [Compound 43, N-((2S,3R)-3-hydroxy-4-((5-isopropylpyridin-3-yl)methylamino)-1-phenylbutan-2-yl)-3-((R)-2-(4-methylthiazol-2-yl)pyrrolidine-1-carbonyl)-5-(pyrazin-2-yl)benzamide]	< 100	< 300
Cc1csc([C@H]2CCCN2C(=O)c2cncc(C(=O)N[C@@H](Cc3ccccc3)[C@H](O)CNCc3cncc(C(C)(C)F)c3)c2)n1 [Compound 44, N-((2S,3R)-4-((5-(2-fluoropropan-2-yl)pyridin-3-yl)methylamino)-3-hydroxy-1-phenylbutan-2-yl)-5-((R)-2-(4-methylthiazol-2-yl)pyrrolidine-1-carbonyl)nicotinamide]	< 100	< 300
Cc1csc([C@H]2CCCN2C(=O)c2cccc(C(=O)N[C@@H](Cc3ccccc3)[C@H](O)CNCc3cncc(C(C)(C)F)c3)c2)n1 [Compound 45, N-((2S,3R)-4-((5-(2-fluoropropan-2-yl)pyridin-3-yl)methylamino)-3-hydroxy-1-phenylbutan-2-yl)-3-((R)-2-(4-methylthiazol-2-yl)pyrrolidine-1-carbonyl)benzamide]	< 100	< 300
Cc1csc([C@H]2CCCN2C(=O)c2cccc(C(=O)N[C@@H](Cc3ccccc3)[C@H](O)CN[C@H](C)c3cncc(C(C)C)c3)c2)n1 [Compound 46, N-((2S,3R)-3-hydroxy-4-((R)-1-(5-isopropylpyridin-3-yl)ethylamino)-1-phenylbutan-2-yl)-3-((R)-2-(4-methylthiazol-2-yl)pyrrolidine-1-carbonyl)benzamide]	< 100	< 300
Cc1csc([C@H]2CCCN2C(=O)c2cc(C(=O)N[C@@H](Cc3ccccc3)[C@H](O)CNCc3cccc(Cl)c3)cc(N(C)C)c2)n1 [Compound 47, N-((2S,3R)-4-(3-chlorobenzylamino)-3-hydroxy-1-phenylbutan-2-yl)-3-(dimethylamino)-5-((R)-2-(4-methylthiazol-2-yl)pyrrolidine-1-carbonyl)benzamide]	< 100	< 300
Cc1csc([C@H]2CCCN2C(=O)c2cc(C(=O)N[C@@H](Cc3ccccc3)[C@H](O)CNCc3cc(Cl)cc(Cl)c3)cc(N(C)C)c2)n1 [Compound 48, N-((2S,3R)-4-(3,5-dichlorobenzylamino)-3-hydroxy-1-phenylbutan-2-yl)-3-(dimethylamino)-5-((R)-2-(4-methylthiazol-2-yl)pyrrolidine-1-carbonyl)benzamide]	< 100	< 300
Cc1csc([C@H]2CCCN2C(=O)c2cc(C(=O)N[C@@H](Cc3ccccc3)[C@H](O)CNCc3cccc(C(F)(F)F)c3)cc(-c3cnccn3)c2)n1 [Compound 49, N-((2S,3R)-3-hydroxy-1-phenyl-4-(3-(trifluoromethyl)benzylamino)butan-2-yl)-3-((R)-2-(4-methylthiazol-2-yl)pyrrolidine-1-carbonyl)-5-(pyrazin-2-yl)benzamide]	< 100	< 300
Cc1csc([C@H]2CCCN2C(=O)c2cc(CF)cc(C(=O)N[C@@H](Cc3ccccc3)[C@H](O)CNCc3cncc(C(C)(C)F)c3)c2)n1 [Compound 50, 3-(fluoromethyl)-N-((2S,3R)-4-((5-(2-fluoropropan-2-yl)pyridin-3-yl)methylamino)-3-hydroxy-1-phenylbutan-2-yl)-5-((R)-2-(4-methylthiazol-2-yl)pyrrolidine-1-carbonyl)benzamide]	< 100	< 300
Cc1csc([C@H]2CCCN2C(=O)c2cc(CF)cc(C(=O)N[C@@H](Cc3ccccc3)[C@H](O)CNCc3cncc(C(F)(F)F)c3)c2)n1 [Compound 51, 3-(fluoromethyl)-N-((2S,3R)-3-hydroxy-1-phenyl-4-((5-(trifluoromethyl)pyridin-3-yl)methylamino)butan-2-yl)-5-((R)-2-(4-methylthiazol-2-yl)pyrrolidine-1-carbonyl)benzamide]	< 100	< 300
